Assay results reported in US11786479B2, “Nucleic acid nanocapsules for drug delivery and targeted gene knockdown” (University of Connecticut, priority 2017, dated 2023).

Legend:
HeLa cells = assay: MTS assay of PMA-treated HeLa cells with camptothecin-loaded MMP9-NANs; assay type: cell-based; conditions: HeLa cells treated with PMA for 21 h
Description: In order to test the correlation between enzyme expression level within a live cell and the ability of the pep-NANs to be degraded, an additional assay was run in which HeLa cells were treated with phorbol 12-myristate 13-acetate (PMA), a known inducer of MMP9 expression in HeLa cells. Cells were incubated in serum-free media and treated with MMP9-NANs carrying camptothecin, a known apoptotic cancer drug. The toxicity of the drug loaded MMP9-NANs was evaluated using an MTS assay post 21 h PMA treatment, allowing enough time for MMP9 expression.

MCF-7 cells = assay: Confocal microscopy uptake of TYE-665 labeled DNAzyme in MCF-7 cells; assay type: cell-based; conditions: 4 hours of incubation
Description: FIG. 15 illustrates cellular uptake and targeted gene knockdown by DNAzyme-NANs in MCF-7 cells. (A) Confocal microscopy of free DNAzymes labeled with TYE-665 dye transfected into MCF-7 cells and monitored for evidence of cellular uptake post 4 hours of incubation. (B) Confocal microscopy of DNz-NANs incubated with cells without transfection agents in which the DNAzyme on the NAN was also labeled with TYE-665 dye. […] All scale bars are 20 μm. (C) GATA-3 mRNA knockdown in MCF-7 cells. 250 nM DNz-NAN is capable of knocking down mRNA by 60% compared to untreated cells (N=3, p=0.0016). […] Error bars represent the standard error of the mean (N=3). (D) MCF-7 cells treated with 250 nM DNz-NANs, monitored for GATA-3 mRNA levels via qRT-PCR at times ranging from 4 to 48 hours of incubation.
Targeted cleavage is only possible if the DNz-NAN can disassemble and the DNz-surfactants can escape the endosomal compartments of the cell post endocytosis. To study the suitability of the DNz-NAN for cellular uptake and stability of its DNAzyme ligands in the cell, the DNz-NANs were first incubated in 10% fetal bovine serum to mimic exposure to cellular nucleases. […] 1 μM Dye-DNz-NANs were incubated with MCF-7 cells for 4 hr and monitored for evidence of uptake using confocal microscopy (FIGS. 15A and 15B). […]

GATA-3 mRNA truncate [1] = assay: Kinetics cleavage assay (BHQ-mRNA fluorescence); assay type: biochemical; conditions: 10 nM DNAzyme, mRNA truncate 10-200 nM, 37° C.
Source text: Kinetics Cleavage Assay: To determine the kinetics of the cleavage of GATA-3 by both the free and NAN-bound DNAzyme, a fluorescence-based assay was developed. A mRNA truncate corresponding to the cleavable sequence in GATA-3 mRNA was purchased (BioSearch Technologies). The truncate, herein referred to as BHQ-mRNA, was functionalized with a quencher (BHQ1) at the 3′ end and a fluorescein derivative (FAM) at the 5′ end. […] All fluorescence measurements were taken using a Horiba Jobin Yvon fluorometer and, unless otherwise stated, all samples were excited at 470 nm and measurements taken from 485 nm to […]. Samples were heated to their stated temperature using a Cary single cell peltier accessory. A solution of MgCl2 (10 mM), NaCl (100 mM), DNAzyme (10 nM) and H2O was prepared in a total volume 400 μL. The DNAzyme solution was heated to 70° C. for ten minutes prior to mixing. The sample was cooled to and held at 37° C. in the fluorometer and an initial background reading was taken. BHQ mRNA (10 nM, BioSearch Technologies) was spiked into the sample and the fluorescence monitored over 20 minutes. Additional measurements were taken at 25, 50, 75, and 200 nM concentrations of mRNA. This same procedure was repeated for the DNAzyme-NAN (10 nM). […] All non-linear fits for assigning Vmax values were determined using Kaleidagraph 4.5 graphing software.

GATA-3 mRNA truncate [2] = assay: Cleavage assay of mRNA truncate, polyacrylamide gel; assay type: biochemical; conditions: 37° C., 4 h
Description: Cleavage Assay. To test the activity of the GATA-3 DNAzyme, both free DNAzyme and 5 μM of ligated NANs were incubated with 0.5 μM GATA-3 mRNA truncate, both in the presence and absence of salts (10 mM MgCl2 and 100 mM NaCl). The different reactions were then run on an 8% denaturing polyacrylamide gel at 350 V for 30 minutes. The gel was scanned using both a 473 nm laser and a 532 nm laser.

[3] = tested on: mRNA truncate within the Au NP lipoplex; assay: mRNA cleavage across AuNP-templated lipid bilayer (synthetic lipoplex); assay type: biochemical; conditions: equal concentrations of DNAzyme
Source text: A synthetic lipoplex system was designed to help monitor mRNA cleavage across a lipid bilayer (FIG. 16A). This construct was built using a gold nanoparticle (Au NP) as it can support a simplified lipid bilayer system (FIG. 16B). At the Au NPs surface, both a thiolated DNA molecule and a thiolated PEG-DSPE molecule were assembled (1:2 ratio). The DNA at the surface serves as an anchoring site for the annealing of the 19mer mRNA truncate. For this assay, the same mRNA truncate that was utilized in the kinetics assay was used. Therefore, unless cleaved, the molecule should have limited fluorescence as it has both the BHQ quencher and FAM modifications. This construct was further encapsulated with DOPE, to form a bilayer around the AuNPs, a procedure previously disclosed (Shen et al. Nanoscale, 2016, 8, 14821-14835.) These particles were then subjected to either the free DNAzyme or DNAzyme-surfactants, and the extent of mRNA cleavage evaluated as a function of increases observed in overall fluorescence. To mimic more closely the DNz-surfactant that would results from the DNz-NANs post degradation by endosomal esterases, a modified surfactant which presented only two alkynes was synthesized, attached the DNA anchor to it, and ligated DNAzymes to the anchor to form a DNAzyme-surfactant conjugate. […] All conditions had equal concentrations of DNAzyme.

| Molecule | no toxicity up to (HeLa cells) | cellular uptake (TYE-665 signal) (MCF-7 cells) | Km (GATA-3 mRNA truncate [1]) [µM] | cleavage of truncated GATA-3 mRNA (gel) (GATA-3 mRNA truncate [2]) | access to and cleavage of mRNA truncate across lipid bilayer (fluorescence) [3] |
| --- | --- | --- | --- | --- | --- |
| CCCCCCCCCCCCCC(=O)O[C@@H]1[C@@H](C)[C@@]2(O)[C@@H](C=C(CO)C[C@]3(O)C(=O)C(C)=C[C@@H]23)[C@@H]2C(C)(C)[C@]12OC(C)=O [PMA, phorbol 12-myristate 13-acetate] | up to 150 ng/mL | – | – | – | – |
| DNAzyme: GATA-3 targeting DNAzyme (hgd40), SEQ ID NO:2 (DNA GTGGATGGAGGCTAGCTACAACGAGTCTTGGAG; GATA-3 DNAzyme; misc_structure (1)..(1) monophosphorylated site) | – | TYE signal could be observed in the perinuclear region of the cells | 0.059 | complete cleavage | limited change in signal |
